Reference: patent EP0395312B1, “Piperazine derivatives” (JOHN WYETH & BROTHER LIMITED, priority 1989, dated 1990)
Where two headings read alike, the source gives them in different places.

Experiments:
5-HT1A receptor [1] = molecular target: T1, 5-HT1A receptor (Rattus norvegicus, UniProt P19327); test: 5-HT1A receptor binding activity in rat hippocampal membrane homogenate
T1 construct: rat hippocampal membrane homogenate; from tissue; host or cells: rat hippocampus membrane homogenate
T1 sequence (P19327 1-422): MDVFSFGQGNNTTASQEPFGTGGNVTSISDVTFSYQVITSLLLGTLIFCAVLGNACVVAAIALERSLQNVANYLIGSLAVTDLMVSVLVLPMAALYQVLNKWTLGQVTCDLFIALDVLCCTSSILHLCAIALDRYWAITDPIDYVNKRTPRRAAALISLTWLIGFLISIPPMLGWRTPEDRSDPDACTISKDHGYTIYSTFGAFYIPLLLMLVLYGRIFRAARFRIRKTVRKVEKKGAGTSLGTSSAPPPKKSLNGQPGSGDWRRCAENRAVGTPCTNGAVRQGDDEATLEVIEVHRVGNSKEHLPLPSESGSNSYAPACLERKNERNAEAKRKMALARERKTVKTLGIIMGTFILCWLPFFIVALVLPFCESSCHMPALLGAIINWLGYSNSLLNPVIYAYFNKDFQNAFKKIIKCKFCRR
Description: The compounds of the invention were tested for 5-HT1A receptor binding activity in rat hippocampal membrane homogenate by the method of B S Alexander and M D Wood, J Pharm Pharmarol, 1988, 40, 888-891.

α1 sites = test: Affinity for α1 sites (procedure of Morrow et al); assay type: binding; details: read-out: Affinity for α1 site IC50
D2 receptor sites = D2 receptor sites (Homo sapiens, UniProt P14416); test: Affinity for D2 receptor sites (procedure of Hancock et al); assay type: binding; details: read-out: Affinity for D2 site IC50
Sequence of D2 receptor sites (P14416 whole entry): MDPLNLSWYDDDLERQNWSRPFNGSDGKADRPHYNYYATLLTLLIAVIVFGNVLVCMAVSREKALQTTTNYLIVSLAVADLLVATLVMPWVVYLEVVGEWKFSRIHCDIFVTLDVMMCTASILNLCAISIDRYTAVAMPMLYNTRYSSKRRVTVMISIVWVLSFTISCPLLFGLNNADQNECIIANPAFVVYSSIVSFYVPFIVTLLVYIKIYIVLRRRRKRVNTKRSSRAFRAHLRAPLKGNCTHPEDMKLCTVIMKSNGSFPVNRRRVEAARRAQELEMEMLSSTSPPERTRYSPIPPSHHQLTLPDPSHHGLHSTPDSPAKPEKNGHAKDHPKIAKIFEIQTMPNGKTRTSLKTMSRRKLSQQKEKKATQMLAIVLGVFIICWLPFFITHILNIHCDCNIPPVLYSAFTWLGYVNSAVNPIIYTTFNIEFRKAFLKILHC

5-HT1A receptor [2] = molecular target: T2, 5-HT1A receptor (Cavia porcellus, UniProt A0A286Y074); test: 5-HT1A receptor antagonism: antagonism of 5-carboxamidotryptamine in isolated ileum in vitro; set-up: species or system guine-pig; details: guinea-pig ileum in vitro, read-out: pA2 (converted)
T2 construct: in the guine-pig ileum in in vitro; from tissue; host or cells: guinea-pig isolated ileum
T2 sequence (A0A286Y074 1-421): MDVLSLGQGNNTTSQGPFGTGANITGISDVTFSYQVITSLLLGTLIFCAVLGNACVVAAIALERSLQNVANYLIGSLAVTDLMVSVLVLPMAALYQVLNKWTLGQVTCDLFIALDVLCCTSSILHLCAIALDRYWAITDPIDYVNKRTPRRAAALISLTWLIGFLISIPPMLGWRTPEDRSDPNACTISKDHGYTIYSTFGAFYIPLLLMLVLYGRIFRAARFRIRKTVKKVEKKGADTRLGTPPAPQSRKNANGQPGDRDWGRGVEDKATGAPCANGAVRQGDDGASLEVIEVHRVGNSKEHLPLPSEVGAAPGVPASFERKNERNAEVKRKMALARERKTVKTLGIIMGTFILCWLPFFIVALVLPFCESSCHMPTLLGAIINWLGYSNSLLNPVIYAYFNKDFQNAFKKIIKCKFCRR
Description: The compounds are tested for 5-HT1A receptor antagonism activity in a test involving the antagonism of 5-carboxamidotryptamine in the guine-pig ileum in in vitro (based upon the procedure of Fozard et al, Br J Pharmac 1985, 86, 601P).

[3] = 5-HT1A receptor binding, rat hippocampal membrane homogenate, read-out: IC50

| IC50 (5-HT1A receptor [1]; [3]) [nM] | IC50 (α1 sites) [nM] | IC50 (D2 receptor sites) [nM] | Kb (5-HT1A receptor [2]) [nM] | SMILES | IC50 (5-HT1A receptor [1]) [nM] |
| --- | --- | --- | --- | --- | --- |
| 45 |  |  |  | CNC(=O)C(CN1CCN(c2ccccc2OC)CC1)c1ccccc1 (stereo not shown) [Example 8, methylamide] |  |
| 88 | 2850 |  |  | CCOC(=O)N[C@H](CN1CCN(c2ccccc2OC)CC1)c1ccccc1 [Example 41, Ethyl(S)-N-[2-[1-[4-(2-methoxyphenyl)piperazinyl]]-1-phenylethyl]carbamate] |  |
| 21 | 851 | > 10000 | 158 | COc1ccccc1N1CCN(CC(C(=O)N2CCCC2)c2ccccc2)CC1 (stereo not shown) [Example 32, 1-{3-{1-[4-(2-methoxyphenyl)piperazinyl]}-2-phenylpropionyl}pyrrolidine] |  |
| 24 |  | 6290 | 126 | COc1ccccc1N1CCN(CC(C(=O)NC2CCCCC2)c2ccccc2)CC1 (stereo not shown) [Example 19] |  |
|  |  |  |  | COc1ccccc1N1CCN(CC(C(=O)N2CCCCCC2)c2ccccc2)CC1 (stereo not shown) [Example 34, 2,3,4,5,6,7-hexahydro-1-{3-{1-[4-(2-methoxyphenyl)piperazinyl]}-2-phenylpropionyl}-1H-azepine] | 9 |
| 37 | 988 |  | 126 | COC(=O)C(CN1CCN(c2ccccc2OC)CC1)c1ccccc1 (stereo not shown) [Example 42, Methyl 3-[1-[4-(2-methoxyphenyl)piperazinyl]]-2-phenylpropionate] |  |
| 45 | 7310 |  | 25.1 | COc1ccccc1N1CCN(C[C@@H](NC(=O)C2CCCCC2)c2ccccc2)CC1 [Example 37, (S)-N-[2-[1-[4-(2-Methoxyphenyl)piperazinyl]]-1-phenylethyl]cyclohexanecarboxylic acid amide] |  |
| 25 |  |  |  | CCOC(=O)C(Cc1ccccc1)CN1CCN(c2ccccc2OC)CC1 (stereo not shown) [Example 29, Ethyl 2-{1-[4-(2-methoxyphenyl)piperazinyl]methyl}-3-phenylpropanoate] |  |
| 127 |  |  |  | COc1ccccc1N1CCN(CC(C(=O)Nc2ccccc2)c2ccccc2)CC1 (stereo not shown) [Example 6, 3-{1-[4-(2-Methoxyphenyl)piperazinyl]}-2-phenyl-N-phenylpropanamide] |  |
| 16.5 |  |  |  | COc1ccccc1N1CCN(CC(C(=O)NC2CCCCCCC2)c2ccccc2)CC1 (stereo not shown) [Example 35] |  |
| 45 | 1230 |  |  | COc1ccccc1N1CCN(CC(C(=O)N(C)C)c2ccccc2)CC1 (stereo not shown) [Example 22, N,N-Dimethyl-3-{1-[4-(2-methoxyphenyl)piperazinyl]}-2-phenylpropanamide] |  |
| 49 | 1200 |  | 126 | COc1ccccc1N1CCN(CC(C(=O)NCCN2C(=O)CC3(CCCC3)CC2=O)c2ccccc2)CC1 (stereo not drawn) [Example 21, 8-{α-{1-[4-(2-methoxyphenyl)piperazinyl]methyl}phenylacetamidoethyl}-8-azaspiro[4.5]deca-7,9-dione] |  |
| 59 |  |  | 100 | COc1ccccc1N1CCN(CC(C(=O)NCc2ccccc2)c2ccccc2)CC1 (stereo not shown) [Example 23, 3-{1-[4-(2-Methoxyphenyl)piperazinyl]}-2-phenyl-N-(phenylmethyl)propanamide] |  |
| 22 |  |  |  | COc1ccccc1N1CCN(CC(OC(=O)Nc2ccccc2)c2ccccc2)CC1 (stereo not shown) [Example 39, O-[2-[1-[4-(2-Methoxyphenyl)piperazinyl]]-1-phenylethyl]-N-phenylcarbamate] |  |
| 8 |  |  |  | COc1ccccc1N1CCN(CC(C(=O)N2CCCCC2)c2ccccc2)CC1 (stereo not shown) [Example 33, 1-{3-{1-[4-(2-methoxyphenyl)piperazinyl]}-2-phenylpropionyl}piperidine] |  |
| 28 |  |  | 39.8 | COc1ccccc1N1CCN(CC(C(=O)NC2CC2)c2ccccc2)CC1 (stereo not shown) [Example 31, cyclopropyl-amide] |  |
| 75 | > 10000 |  |  | O=C(NC1CCCCC1)C(CN1CCN(c2ncccn2)CC1)c1ccccc1 (stereo not shown) [Example 24, N-Cyclohexyl-2-phenyl-3-{1-[4-(2-pyrimidinyl)piperazinyl]}propanamide] |  |
| 46 | 1090 |  | 158 | COc1ccccc1N1CCN(CC(C(=O)OCC(C)C)c2ccccc2)CC1 (stereo not shown) [Example 26, 2-Methylpropyl 3-{1-[4-(2-methoxyphenyl)piperazinyl]}-2-phenylpropanoate] |  |
| 78 |  |  |  | COc1ccccc1N1CCN(CC(OC(=O)C2CCCCC2)c2ccccc2)CC1 (stereo not shown) [Example 40, 2-{1-[4-(2-Methoxyphenyl)piperazinyl]}-1-phenylethyl cyclohexanecarboxylate] |  |
